Experiment [1] relates to native GBRs in mouse brain membranes. The experiment is described as follows: [^35S]GTPγS binding in brain membrane preparations.
Experiment [2] concerns mEPSCs in brain slices / cultured hippocampal neurons. To be noted: cultured hippocampal neurons APP17 250 nM, ref Rice et al., 2019; cited from earlier work. The text has this:
GBRs are composed of a GB1a or GB1b subunit with a GB2 subunit, which generates heterodimeric GB1a/2 and GB1b/2 receptors ([Pin and Bettler, 2016]). GB1a differs from GB1b by the presence of two N-terminal sushi domains (SD1/2). GB1a/2 and GB1b/2 receptors predominantly localize to pre- and postsynaptic sites, respectively ([Vigot et al., 2006]). APP and sAPP bind to SD1 of GB1a ([Schwenk et al., 2016]; [Dinamarca et al., 2019]; [Rice et al., 2019]). Synthetic APP peptides of 9 or 17 amino acid residues, termed APP9 and APP17, are sufficient for binding and inducing a stable conformation in SD ... || GB1a/2 receptors are abundant at axon terminals where they inhibit neurotransmitter release ([Vigot et al., 2006]). […] A GBR antagonist blocked the effect of APP17 on the mEPSC frequency, supporting a GBR-dependent mechanism.

Experiment [3] has as its system GBR-activated K^+ currents in cultured hippocampal neurons. The experiment in a line: K^+ currents in cultured hippocampal neurons (patch-clamp). The conditions noted are these: 5 µM, -70 mV. It counts as cell-based, mouse. How it is done: APP17 signaling through native GBRs may depend on protein-protein interactions that are not preserved in the membrane preparations used for the [^35S]GTPγS binding assay. Therefore, we tested whether APP17 influences GBR-mediated Gβγ signaling to K^+ channels in cultured hippocampal neurons using patch-clamp electrophysiology, which preserves the native environment of receptors ([Schuler et al., 2001]; [Vigot et al., 2006]). […] . Neuronal cultures and HEK293T cells were prepared as described ([Dinamarca et al., 2019]). Coverslips with hippocampal neurons (DIV 12–15) or HEK293T cells were transferred to a chamber containing a low-K^+ bath solution (in mM): 145 NaCl, 4 KCl, 5 HEPES, 5.5 D-glucose, 1 MgCl2, and 1.8 CaCl2 (pH 7.4 adjusted with NaOH). Recordings were performed at room temperature using borosilicate pipettes of 3–5 MΩ resistance tips, filled with K-gluconate-based pipette solution (in mM): 150 K-gluconate, 1.1 EGTA, 10 HEPES, 10 Tris-phosphocreatine, 0.3 NaGTP, and 4 MgATP (pH 7.2 adjusted with KOH). Upon achieving whole-cell access, cells were held in voltage-clamp mode at −70 mV (with no correction for liquid junction potential) and baclofen-induced K^+ currents were induced in a high-K^+ bath solution (in mM): 120 NaCl, 25 KCl, 5 HEPES, 5.5 D-glucose, 1 MgCl2, and 1.8 CaCl2 (pH 7.4 adjusted with NaOH). […] Schaffer collaterals were stimulated at 0.1 Hz with brief current pulses via bipolar Pt/Ir wires. Evoked EPSCs were recorded at –60 mV with a Cs^+-based intracellular solution. Baclofen and peptides were bath applied in standard ACSF at room temperature. We recorded mEPSCs in primary neuronal cultures established from embryonic (E15–17) murine hippocampus at DIV13–16 in the presence of 0.5 μM TTX at room temperature ([Dinamarca et al., 2019]). APP17 (250 nM) and (R)-baclofen (30 μM) were applied via superfusion. Template matching with pClamp 10 software (Molecular Devices) was used to detect individual mEPSCs.
In general terms: The patch-clamp technique gives a direct electrical read-out from membranes.

In experiment [4] the test system is mEPSCs of cultured hippocampal neurons. The experiment in a line: mEPSC frequency in cultured hippocampal neurons. It counts as cell-based, mouse. The conditions noted are these: baclofen 30 µM, after APP17, 0.5 μM TTX. On the procedure: (§1) GB1a/2 receptors are abundant at axon terminals where they inhibit neurotransmitter release ([Vigot et al., 2006]). […] A GBR antagonist blocked the effect of APP17 on the mEPSC frequency, supporting a GBR-dependent mechanism. […] We additionally studied whether APP17 at 250 nM influences eEPSC amplitudes in acute hippocampal slices. Postsynaptic GBR-activated K^+ currents were blocked with a Cs^+-based intracellular solution, which allowed to specifically monitor the activity of presynaptic GBRs.
(§2) Neuronal cultures and HEK293T cells were prepared as described ([Dinamarca et al., 2019]). Coverslips with hippocampal neurons (DIV 12–15) or HEK293T cells were transferred to a chamber containing a low-K^+ bath solution (in mM): 145 NaCl, 4 KCl, 5 HEPES, 5.5 D-glucose, 1 MgCl2, and 1.8 CaCl2 (pH 7.4 adjusted with NaOH). Recordings were performed at room temperature using borosilicate pipettes of 3–5 MΩ resistance tips, filled with K-gluconate-based pipette solution (in mM): 150 K-gluconate, 1.1 EGTA, 10 HEPES, 10 Tris-phosphocreatine, 0.3 NaGTP, and 4 MgATP (pH 7.2 adjusted with KOH). […] Evoked EPSCs were recorded at –60 mV with a Cs^+-based intracellular solution. […] We recorded mEPSCs in primary neuronal cultures established from embryonic (E15–17) murine hippocampus at DIV13–16 in the presence of 0.5 μM TTX at room temperature ([Dinamarca et al., 2019]). […]

For experiment [5], the system named is spontaneous neuronal activity in the auditory cortex. The experiment is described as follows: two-photon Ca^2+ imaging of auditory cortex in anesthetized mice. The conditions noted are these: 5 µM perfused over cortex; peptides 60 min, baclofen 15 min.
The subject of experiment [6] is eEPSCs of CA1 pyramidal neurons. The experiment in a line: eEPSC amplitudes in CA1 pyramidal neurons of acute hippocampal slices. Set-up: species or system mouse. The conditions noted are these: APP17 250 nM or baclofen 20 µM, Cs^+-based intracellular solution. On the procedure: as §1, §2
Where [7] appears, read: 1 μM APP17, best-fit, different curve for each data set.
Setting [8] is: Global (shared) fit, Vehicle and 1 μM APP17, one curve for all data sets.
[9] abbreviates: Vehicle, best-fit, different curve for each data set.

Here are results for 3 compounds from PMC9917443 (eLife, 2023).

In the case of `NCCCC(=O)O` [GABA], in experiment [1] (setting [7]), the Bottom amounted to 0.9821, the HillSlope was determined as 0.6558, the Span stood at 0.4027 and the Top amounted to 1.385. Further, the Basal in experiment [1] (GABA curve fit, vehicle, n=9) came out at 0.99. This compound showed an EMax in experiment [1] (GABA, vehicle, n=9) of 1.37. In experiment [1] (setting [8]), the Bottom came out at 0.9874, the HillSlope is listed as 0.6587, the Span was 0.3874 and the Top is on record as 1.375. In experiment [1] (setting [9]), this compound came in with a Bottom of 0.9919, a HillSlope of 0.6543, a Span of 0.3771 and a Top of 1.369.

Take `C[C@H](NC[C@H](O)CP(=O)(O)Cc1ccccc1)c1ccc(Cl)c(Cl)c1` [CGP55845]: the “mEPSC frequency (in words)” value in experiment [2] is “reduced the inhibitory effect of APP17 on the mEPSC frequency”.

Turning to `NCC(CC(=O)O)c1ccc(Cl)cc1` (stereo not shown) [baclofen], the “K^+ currents evoked by compound alone (in words)” value in experiment [3] is reported as “activation of K^+ channels by Gβγ”. Further, in experiment [4], the “mEPSC frequency (in words)” value is on record as “significantly reduced mEPSC frequency”. Besides, the “spontaneous Ca^2+ transients (in words)” value in experiment [5] is “reduced spontaneous Ca^2+ transients after 15 min of perfusion”. The “eEPSC amplitude (in words)” value in experiment [6] is listed as “able to reduce the amplitudes of eEPSCs”.
